Source: US20260028354A1, “TETRAHYDRONAPHTHALENE DERIVATIVES AS ESTROGEN RECEPTOR DEGRADERS” (REGENT OF THE UNIVERSITY OF MICHIGAN, priority 2022, published 2026)

Assay: Western blot analysis for "B" compounds
Format: cell-based
Conditions: read-out: Traditional Western Degradation Potency (DC50)
Outline: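 Target protein levels given as relative mean band intensity over GAPDH from scanned immunoblots. Lysates of treated cells in RIPA buffer, equalized by BCA, separated on 10% gels and transferred to PVDF.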

Row | Structure (SMILES) | DC50
1 | CN(CC1CN(c2ccc([C@@H]3c4ccc(O)cc4CC[C@@H]3c3ccccc3)cc2)C1)C1CCC(N2Cc3cc4c(cc3C2)C(=O)N(C2CCC(=O)NC2=O)C4=O)CC1 (stereo partly drawn) [Compound B95, 2-(2,6-dioxopiperidin-3-yl)-6-(4-(((1-(4-((1R,2S)-6-hydroxy-2-phenyl-1,2,3,4-tetrahydronaphthalen-1-yl)phenyl)azetidin-3-yl)methyl)(methyl)amino)cyclohexyl)-6,7-dihydropyrrolo[3,4-f]isoindole-1,3(2H,5H)-dione] | > 100 nM
2 | O=C1CCC(N2Cc3cc4c(cc3C2=O)CN(C2CCN(CC3CN(c5ccc([C@@H]6c7ccc(O)cc7CC[C@@H]6c6ccccc6)cc5)C3)CC2)C4)C(=O)N1 (stereo partly drawn) [Compound B78, 3-(6-(1-((1-(4-((1R,2S)-6-hydroxy-2-phenyl-1,2,3,4-tetrahydronaphthalen-1-yl)phenyl)azetidin-3-yl)methyl)piperidin-4-yl)-1-oxo-3,5,6,7-tetrahydropyrrolo[3,4-f]isoindol-2(1H)-yl)piperidine-2,6-dione] | > 100 nM
3 | O=C1CCC(N2C(=O)c3cc4c(cc3C2=O)CN(C2CCN(C(=O)C3(F)CCN(c5ccc([C@@H]6c7ccc(O)cc7CC[C@@H]6c6ccccc6)cc5)CC3)CC2)C4)C(=O)N1 (stereo partly drawn) [Compound B280, 2-(2,6-dioxopiperidin-3-yl)-6-(1-(4-fluoro-1-(4-((1R,2S)-6-hydroxy-2-phenyl-1,2,3,4-tetrahydronaphthalen-1-yl)phenyl)piperidine-4-carbonyl)piperidin-4-yl)-6,7-dihydropyrrolo[3,4-f]isoindole-1,3(2H,5H)-dione] | > 100 nM
4 | O=C1CCC(N2C(=O)c3cc4c(cc3C2=O)CN([C@H]2CC[C@H](NC3CCN(c5ccc([C@@H]6c7ccc(O)cc7CC[C@@H]6c6ccccc6)cc5)CC3)CC2)C4)C(=O)N1 (stereo partly drawn) [Compound B97, 2-(2,6-dioxopiperidin-3-yl)-6-((1R,4r)-4-((1-(4-((1R,2S)-6-hydroxy-2-phenyl-1,2,3,4-tetrahydronaphthalen-1-yl)phenyl)piperidin-4-yl)amino)cyclohexyl)-6,7-dihydropyrrolo[3,4-f]isoindole-1,3(2H,5H)-dione] | > 100 nM
5 | O=C1CCC(N2C(=O)c3cc4c(cc3C2=O)CN(C(=O)CN2CCC3(CC2)CCN(c2ccc([C@@H]5c6ccc(O)cc6CC[C@@H]5c5ccccc5)cc2)CC3)C4)C(=O)N1 (mixture of isomers) [Compound B18, 2-(2,6-dioxopiperidin-3-yl)-6-(2-(9-(4-((1R,2S)-6-hydroxy-2-phenyl-1,2,3,4-tetrahydronaphthalen-1-yl)phenyl)-3,9-diazaspiro[5.5]undecan-3-yl)acetyl)-6,7-dihydropyrrolo[3,4-f]isoindole-1,3(2H,5H)-dione] | 10 to 100 nM
6 | O=C1CCC(N2C(=O)c3cc4c(cc3C2=O)CN(CC(=O)N2CC(n3cc(-c5ccc([C@@H]6c7ccc(O)cc7CC[C@@H]6c6ccccc6)cc5)cn3)C2)C4)C(=O)N1 (stereo partly drawn) [Compound B59, 2-(2,6-dioxopiperidin-3-yl)-6-(2-(3-(4-(4-((1R,2S)-6-hydroxy-2-phenyl-1,2,3,4-tetrahydronaphthalen-1-yl)phenyl)-1H-pyrazol-1-yl)azetidin-1-yl)-2-oxoethyl)-6,7-dihydropyrrolo[3,4-f]isoindole-1,3(2H,5H)-dione] | > 100 nM
7 | O=C1CCC(N2C(=O)c3cc4c(cc3C2=O)CN(CCN2CCC3(CC2)CCN(c2ccc([C@@H]5c6ccc(O)cc6CC[C@@H]5c5ccccc5)cc2)CC3)C4)C(=O)N1 (mixture of isomers) [Compound B198, 2-(2,6-dioxopiperidin-3-yl)-6-(2-(9-(4-((1R,2S)-6-hydroxy-2-phenyl-1,2,3,4-tetrahydronaphthalen-1-yl)phenyl)-3,9-diazaspiro[5.5]undecan-3-yl)ethyl)-6,7-dihydropyrrolo[3,4-f]isoindole-1,3(2H,5H)-dione] | 10 to 100 nM
8 | O=C1CCC(N2C(=O)c3cc4c(cc3C2=O)CN(C(=O)CN2CCC3(CC2)CCN(c2ccc([C@@H]5c6ccc(O)cc6CC[C@@H]5c5ccc(F)cc5)cc2)C3)C4)C(=O)N1 (mixture of isomers) [Compound B31, 2-(2,6-dioxopiperidin-3-yl)-6-(2-(2-(4-((1R,2S)-2-(4-fluorophenyl)-6-hydroxy-1,2,3,4-tetrahydronaphthalen-1-yl)phenyl)-2,8-diazaspiro[4.5]decan-8-yl)acetyl)-6,7-dihydropyrrolo[3,4-f]isoindole-1,3(2H,5H)-dione] | > 100 nM
9 | O=C1CCC(N2C(=O)c3cc4c(cc3C2=O)CN(c2ccc(CN3CC(Oc5ccc([C@@H]6c7ccc(O)cc7CC[C@@H]6c6ccccc6)cc5)C3)cn2)C4)C(=O)N1 (stereo partly drawn) [Compound B90, 2-(2,6-dioxopiperidin-3-yl)-6-(5-((3-(4-((1R,2S)-6-hydroxy-2-phenyl-1,2,3,4-tetrahydronaphthalen-1-yl)phenoxy)azetidin-1-yl)methyl)pyridin-2-yl)-6,7-dihydropyrrolo[3,4-f]isoindole-1,3(2H,5H)-dione] | > 100 nM
10 | O=C1CCC(N2C(=O)c3cc4c(cc3C2=O)CN(CC2CCN(C(=O)C3CN(c5ccc([C@@H]6c7ccc(O)cc7CC[C@@H]6c6ccccc6)cc5)C3)CC2)C4)C(=O)N1 (stereo partly drawn) [Compound B264, 2-(2,6-dioxopiperidin-3-yl)-6-((1-(1-(4-((1R,2S)-6-hydroxy-2-phenyl-1,2,3,4-tetrahydronaphthalen-1-yl)phenyl)azetidine-3-carbonyl)piperidin-4-yl)methyl)-6,7-dihydropyrrolo[3,4-f]isoindole-1,3(2H,5H)-dione] | > 100 nM
11 | O=C1CCC(N2C(=O)c3cc4c(cc3C2=O)CN(CC(=O)N2CCC3(CC2)CCN(c2ccc([C@@H]5c6ccc7[nH]ncc7c6CC[C@@H]5c5ccccc5)cc2)CC3)C4)C(=O)N1 (stereo partly drawn) [Compound B139, 2-(2,6-dioxopiperidin-3-yl)-6-(2-oxo-2-(9-(4-((6R,7S)-7-phenyl-6,7,8,9-tetrahydro-3H-benzo[e]indazol-6-yl)phenyl)-3,9-diazaspiro[5.5]undecan-3-yl)ethyl)-6,7-dihydropyrrolo[3,4-f]isoindole-1,3(2H,5H)-dione] | 10 to 100 nM
12 | O=C1CCC(N2C(=O)c3cc4c(cc3C2=O)CN(C(=O)CN2CCC3(CC2)CC(Oc2ccc([C@@H]5c6ccc(O)cc6CC[C@@H]5c5ccccc5)cc2)C3)C4)C(=O)N1 (stereo partly drawn) [Compound B277, 2-(2,6-dioxopiperidin-3-yl)-6-(2-(2-(4-((1R,2S)-6-hydroxy-2-phenyl-1,2,3,4-tetrahydronaphthalen-1-yl)phenoxy)-7-azaspiro[3.5]nonan-7-yl)acetyl)-6,7-dihydropyrrolo[3,4-f]isoindole-1,3(2H,5H)-dione] | > 100 nM
13 | O=C1CCC(N2C(=O)c3cc4c(cc3C2=O)CN(CC(=O)N2CCC3(CC2)CCN(c2cnc([C@H]5c6ccc(O)cc6CC[C@H]5c5ccccc5)cn2)CC3)C4)C(=O)N1 (mixture of isomers) [Compound B85, 2-(2,6-dioxopiperidin-3-yl)-6-(2-(9-(5-((1R,2R)-6-hydroxy-2-phenyl-1,2,3,4-tetrahydronaphthalen-1-yl)pyrazin-2-yl)-3,9-diazaspiro[5.5]undecan-3-yl)-2-oxoethyl)-6,7-dihydropyrrolo[3,4-f]isoindole-1,3(2H,5H)-dione] | > 100 nM
14 | C[C@H]1CC2(CCN(CC(=O)N3Cc4cc5c(cc4C3)C(=O)N(C3CCC(=O)NC3=O)C5=O)CC2)CN1c1ccc([C@@H]2c3ccc(O)cc3CC[C@@H]2c2ccccc2)cc1 (stereo partly drawn) [Compound B25, 2-(2,6-dioxopiperidin-3-yl)-6-(2-((S)-2-(4-((1R,2S)-6-hydroxy-2-phenyl-1,2,3,4-tetrahydronaphthalen-1-yl)phenyl)-3-methyl-2,8-diazaspiro[4.5]decan-8-yl)acetyl)-6,7-dihydropyrrolo[3,4-f]isoindole-1,3(2H,5H)-dione] | > 100 nM
15 | O=C1CCC(N2C(=O)c3cc4c(cc3C2=O)CN(CCC(=O)NC2CCN(c3ccc([C@@H]5c6ccc(O)cc6CC[C@@H]5c5ccccc5)cc3)CC2)C4)C(=O)N1 (stereo partly drawn) [Compound B94, 3-(6-(2,6-dioxopiperidin-3-yl)-5,7-dioxo-3,5,6,7-tetrahydropyrrolo[3,4-f]isoindol-2(1H)-yl)-N-(1-(4-((1R,2S)-6-hydroxy-2-phenyl-1,2,3,4-tetrahydronaphthalen-1-yl)phenyl)piperidin-4-yl)propenamide] | > 100 nM
16 | O=C1CCC(N2C(=O)c3cc4c(cc3C2=O)CN(CC(=O)N2CCC(N3CC(Oc5ccc([C@@H]6c7ccc(O)cc7CC[C@@H]6c6ccccc6)cc5)C3)CC2)C4)C(=O)N1 (stereo partly drawn) [Compound B121, 2-(2,6-dioxopiperidin-3-yl)-6-(2-(4-(3-(4-((1R,2S)-6-hydroxy-2-phenyl-1,2,3,4-tetrahydronaphthalen-1-yl)phenoxy)azetidin-1-yl)piperidin-1-yl)-2-oxoethyl)-6,7-dihydropyrrolo[3,4-f]isoindole-1,3(2H,5H)-dione] | 10 to 100 nM
17 | O=C1CCC(N2C(=O)c3cc4c(cc3C2=O)CCN(CC(=O)N2CC3(CCN(c5ccc([C@@H]6c7ccc(O)cc7CC[C@@H]6c6ccc(F)cc6)cc5)CC3)C2)CC4)C(=O)N1 (stereo partly drawn) [Compound B53, 2-(2,6-dioxopiperidin-3-yl)-7-(2-(7-(4-((1R,2S)-2-(4-fluorophenyl)-6-hydroxy-1,2,3,4-tetrahydronaphthalen-1-yl)phenyl)-2,7-diazaspiro[3.5]nonan-2-yl)-2-oxoethyl)-6,7,8,9-tetrahydroazepino[4,5-f]isoindole-1,3(2H,5H)-dione] | > 100 nM
18 | O=C1CCC(N2C(=O)c3cc4c(cc3C2=O)CN(C(=O)[C@H]2CC[C@H](CN3CC(Oc5ccc([C@@H]6c7ccc(O)cc7CC[C@@H]6c6ccccc6)cc5)C3)CC2)C4)C(=O)N1 (stereo partly drawn) [Compound B281, 2-(2,6-dioxopiperidin-3-yl)-6-((1R,4r)-4-((3-(4-((1R,2S)-6-hydroxy-2-phenyl-1,2,3,4-tetrahydronaphthalen-1-yl)phenoxy)azetidin-1-yl)methyl)cyclohexane-1-carbonyl)-6,7-dihydropyrrolo[3,4-f]isoindole-1,3(2H,5H)-dione] | 10 to 100 nM
19 | O=C1CCC(N2Cc3cc4c(cc3C2=O)CN(C2CCN(CC3CCN(c5ccc([C@@H]6c7ccc(O)cc7CC[C@@H]6c6ccccc6)cc5)CC3)CC2)C4=O)C(=O)N1 (stereo partly drawn) [Compound B303, 2-(2,6-dioxopiperidin-3-yl)-6-(1-((1-(4-((1R,2S)-6-hydroxy-2-phenyl-1,2,3,4-tetrahydronaphthalen-1-yl)phenyl)piperidin-4-yl)methyl)piperidin-4-yl)-2,3,6,7-tetrahydropyrrolo[3,4-f]isoindole-1,5-dione] | > 100 nM
